Measured values published in patent US9216165B2, “Combination of a statin and a taxane for the treatment of gastric cancer” (INSERM (Institut National de la Sante et de la Recherche …, priority 2011, dated 2015).

Experiments:
[1] = test system: HGT-1 human gastric cancer cells; experiment: Apoptosis by Hoechst 33342 staining in HGT-1 cells; type: cell-based; settings: for apoptosis: HGT-1
Experimental: HGT-1 human gastric cancer cells were grown at 37° C. under a humidified atmosphere of 5% CO2 in DMEM (Dulbecco's modified Eagle's medium) (Lonza, Saint Beauzire, France), containing 4.5 g/L glucose and supplemented with 5% fetal bovine serum without antibiotics (Gibco-Invitrogen, Cergy Pontoise, France).
(§1) Apoptosis was determined by Hoechst 33342 (10 μg/ml in PBS) staining of the cells for 15 min at 37° C. and fluorescence microscopy analysis of 300 cells per condition, from replicate cultures.

HGT-1 cells [2] = experiment: mRNA levels by quantitative real-time RT-PCR in HGT-1 cells; type: cell-based, human; settings: 48 h
Experimental: Total RNA was isolated using Trizol (Invitrogen, Cergy-Pontoise, france) and the RNA samples were used for the first-strand cDNA synthesis with the High Capacity cDNA Reverse Transcription kit and random hexamer primers (Applied biosystems). Quantitative real-time RT-PCR was performed using the Power SYBR Green Kit (Applied biosystems) according to the manufacturer's instructions. mRNA levels were analyzed in duplicate, normalized against GAPDH or phospho-protein P0 as an internal control gene. The results are expressed as the relative gene expression using the ΔΔCt method (Livak and Schmittgen 2001). The primer sequences and reaction conditions will be provided upon request.

HGT-1 cells [3] = experiment: Protein levels by western blotting in HGT-1 cells; type: cell-based, human
Experimental: (§2) The cells were harvested, washed in PBS and lysed in ripa buffer (50 mM Tris HCl pH7.4, 150 mM NaCl, 0.5% Sodium deoxycholate, 0.1% SDS, 1% NP40, 1 mM EDTA, 1 mM PMSF) containing protease inhibitor cocktail (Roche, Meylan, France) and phosphatase inhibitor (Active motif) for 10 min at 4° C. Sixty micrograms of proteins were boiled in Laemmli sample buffer (Bio-Rad) for 5 min, separated by SDS-PAGE using 12% or 15% polyacrylamide gels and blotted onto polyvinyl difluoride membranes (GE Healthcare). Non specific binding sites were blocked for 1 h at room temperature by 5% (wt/v) fat-free milk before overnight incubation at 4° C. with specific rabbit (or mouse for cyclin B1) anti-human antibodies: aurora kinase A and B, procaspase-3, PARP, Bcl-2, Bax and survivin (Cell Signaling Technology-Ozyme, Saint Quentin en Yvelines, France), p27, p21, Mcl-1, cyclin B1 (Santa Cruz biotechnology, Tebu-bio, le Perray en Yvelines, France), cyclin D1 (NeoMarkers, Thermo Fisher Scientific, Illkirch, France) or HSC70 (Abcam, Paris, France) as a loading control. Anti-phospho-ERK1/2 was a mouse monoclonal antibody against a synthetic phosphopeptide (residues around threonine 202 and […] of human p44 MAPK, Cell Signaling Technology, Ozyme, France). Polyclonal antibodies against ERK1 (rabbit, sc-94) or ERK2 (rabbit, sc-154) and phospho-MEK1/2 were from Santa Cruz Biotechnology (Tebu-bio). Rabbit anti-phospho-JNK (Cell Signaling, Saint-Quentin en Yvelines, France) and rabbit polyclonal antibody anti-P38 (Santa Cruz Biotechnology, Tebu-bio). Primary antibodies were detected with a horseradish peroxidase-conjugated IgGs (GE Healthcare, Orsay, France).

[4] = test system: lovastatin-resistant HGT-1-derived cells; experiment: Apoptosis in lovastatin-resistant HGT-1-derived cells; type: cell-based, human; settings: data not shown
Experimental: as §1

[5] = test system: docetaxel-resistant HGT-1 cells (D5)
Experimental: Selection of the docetaxel-resistant cell populations was performed with mass cultures grown in complete medium supplemented with 5 nM docetaxel. […] Cells were constantly grown in presence of 5 nM docetaxel, excepted for the cell passage that preceded the experiments that involved drug treatments. […]

D5 cells [6] = experiment: Protein levels by western blotting in D5 cells; type: cell-based, human; settings: 2.5 μM lovastatin, 72 h
Experimental: as §2, with “Polyclonal antibodies against ERK1 (rabbit, sc-94) or ERK2 (rabbit, sc-154) and phospho-MEK1/2 were from Santa Cruz Biotechnology (Tebu-bio). Rabbit anti-phospho-JNK (Cell Signaling, Saint-Quentin en Yvelines, France) and rabbit polyclonal antibody anti-P38 (Santa Cruz Biotechnology, Tebu-bio).” left out

D5 cells [7] = experiment: p21 mRNA by RT-PCR in D5 cells; type: cell-based, human; settings: data not shown
Experimental: Selection of the docetaxel-resistant cell populations was performed with mass cultures grown in complete medium supplemented with 5 nM docetaxel. […] Cells were constantly grown in presence of 5 nM docetaxel, excepted for the cell passage that preceded the experiments that involved drug treatments.

CC(=O)O[C@@]12CO[C@@H]1C[C@H](O)[C@@]1(C)C(=O)[C@H](O)C3=C(C)[C@@H](OC(=O)[C@H](O)[C@@H](NC(=O)OC(C)(C)C)c4ccccc4)C[C@@](O)([C@@H](OC(=O)c4ccccc4)[C@H]21)C3(C)C [docetaxel, Docetaxel]
apoptosis ([1]; 5 nM docetaxel, 48 h): 15% | apoptosis ([1]; 10 nM docetaxel, 48 h): 27% | p21 expression (HGT-1 cells [2]; 5 or 10 nM docetaxel): induced | aurora kinase B and survivin mRNA (HGT-1 cells [2]): weakly induced | phospho-MEK1/2, phospho-ERK1/2 and p38 MAP kinase levels (HGT-1 cells [3]): had no effect | phosphorylated jun kinase (JNK) (HGT-1 cells [3]): had no effect | Bax protein (HGT-1 cells [3]; 48 h): remained unchanged | Caspase-3 and PARP cleavage (HGT-1 cells [3]; 48 h): cleaved | Mcl-1 protein (HGT-1 cells [3]; 48 h): suppressed | cyclin B1, D1, aurora kinase A, B and survivin protein levels (HGT-1 cells [3]; 48 h): decrease in these proteins | survivin protein levels (HGT-1 cells [3]; 48 h): strongly induced | cyclin B1 protein (HGT-1 cells [3]; docetaxel, 48 h): slightly increased | apoptosis compared with HGT-1 parental cells [4]: higher level

CC[C@H](C)C(=O)O[C@H]1C[C@@H](C)C=C2C=C[C@H](C)[C@H](CC[C@@H]3C[C@@H](O)CC(=O)O3)[C@H]21 [lovastatin]
apoptosis ([1]; 12.5 μM lovastatin, 48 h): 35% | apoptosis ([1]; 2.5 or 5 μM lovastatin, 48 or 72 h): up to 32% | apoptosis ([5]; 2.5 or 5 μM lovastatin, 48 or 72 h, D5 cells): up to 55% | p27 expression (HGT-1 cells [2]; 12.5 μM lovastatin alone or with 5 or 10 nM docetaxel): slightly reduced | p21 mRNA induction (HGT-1 cells [2]; 12.5 μM lovastatin): up to 4 fold | LDL-R, HMG-CoA reductase, FPPS and FAS mRNA levels (HGT-1 cells [2]): induced | aurora kinase B and survivin mRNA (HGT-1 cells [2]): repressed | cyclin B1, cyclin D1 and aurora kinase A mRNA (HGT-1 cells [2]): reduced expression of all transcripts | phospho-MEK1/2, phospho-ERK1/2 and p38 MAP kinase levels (HGT-1 cells [3]): decreased | phosphorylated jun kinase (JNK) (HGT-1 cells [3]): induced | Bax protein (HGT-1 cells [3]; 48 h): slightly suppressed | Caspase-3 and PARP cleavage (HGT-1 cells [3]; 48 h): cleaved | Mcl-1 protein (HGT-1 cells [3]; 48 h): suppressed | cyclin B1, D1, aurora kinase A, B and survivin protein levels (HGT-1 cells [3]; 48 h): decrease in all proteins | over-expressed survivin and cyclin B1 proteins in D5 cells (D5 cells [6]): fully suppressed | p27 protein in D5 cells (D5 cells [6]): induced | induction of p21 mRNA in D5 cells compared with HGT-1 (D5 cells [7]): stronger

CC[C@]1(O)C[C@@H]2CN(CCc3c([nH]c4ccccc34)[C@@](C(=O)OC)(c3cc4c(cc3OC)N(C)[C@H]3[C@@](O)(C(=O)OC)[C@H](OC(C)=O)[C@]5(CC)C=CCN6CC[C@]43[C@@H]65)C2)C1 [vinblastine]
apoptosis ([1]; 1 nM vinblastine, 48 h): about 30% | vinblastine-induced apoptosis in D5 cells ([5]; 1 nM vinblastine, 48 h): resistant

Z-VAD-fmk
effect on docetaxel-induced cell death ([1]; HGT-1, with docetaxel): suppress cell death
